From PMC10001324, “Differential Effects of Nonsteroidal Anti-Inflammatory Drugs in an In Vitro Model of Human Leaky Gut” (Cells, 2023)
In brackets after ≈: the same amount, converted by molar mass. Read-outs that look alike come from different tables or passages of the source.

Assays:
[1] = Log P / LogD7.4 by pH-metric titration in octanol (SiriusT3); assay type: physicochemical; details: for logD: pH 7.4; for logP: SiriusT3, octanol
Experimental: (§1) The major physicochemical properties of the drugs were determined using the SiriusT3 apparatus (Sirius Analytical Instruments Ltd., East Sussex, UK) equipped with an Ag/AgCl double junction reference pH electrode, a Sirius D-PAS spectrometer, and a turbidity sensing device. The pH electrode was calibrated titrimetrically in the pH range 1.8–12.2 as previously described. The pKas were defined by the potentiometric method by pH-metric titration. The powder (around 0.5 mg) was diluted in 1.5 mL of ISA water and the titration was analyzed in triplicate in the pH range 2.0–12.0.

physchem = details: water
Experimental: as §1

Caco-2 cells [2] = assay: Transepithelial electrical resistance (TEER), EtOH-stressed Caco-2; assay type: cell-based, human; details: Caco-2 20 DIV, 6% EtOH 24 h then 0.25, 0.5, 1 mM for 72 h
COX-1 = details: human blood, cited from earlier work
IL-8 = details: Caco-2, EtOH exposure 6% for 24 h; control 82.4 ± 0.44 pg/mL
TNF-α = details: Caco-2, EtOH exposure 6% for 24 h; control 10.8 ± 1.3 pg/mL
NFkB = NFkB translocation in LPS-activated RAW 264.7 macrophages; assay type: cell-based, murine; details: 1 mM for 24 h
Experimental: The murine macrophage cell line RAW 264.7 (ATCC TIB-71) was purchased from ATCC, and cells were cultured as indicated by the manufacturer. For the experiment, cells were seeded 10,000/cm^2 for 24 h, starved for 4 h (w/o serum), and activated with lipopolysaccharides (LPS 10 ng/mL for 24 h; Sigma Aldrich, St. Louis, MO, USA). […] RAW 264.7 cells were seeded at 10,000 cells/cm^2 and activated with LPS. […] For both Caco-2 and RAW 264.7 cells, the procedure of extraction of different components was performed as previously reported. The protein fraction extracts were separated on a 10% SDS–polyacrylamide gel and electroblotted onto PVDF. Nonspecific binding sites were blocked by EBB for 5 min. Membranes were then incubated overnight at 4 °C with anti-NFκB and anti-PPARγ. As secondary antibodies, peroxidase-conjugated anti-rabbit, and anti-mouse were used. Bands were detected using Alliance 4.7 UVITEC (Cambridge, UK) and analyzed by ImageJ software. The relative densities of the immunoreactive bands were normalized to anti-Actin or anti-laminin using ImageJ software. Values were given as RU.

[3] = Caco-2 permeability assay (Papp, Ap-Bl); assay type: in vitro ADME; details: human, Caco-2, apical to basolateral
Experimental: Papp is the apparent permeability of a compound across a membrane. For drug transport studies, cells were seeded at a density of 3 × 10^5 cells/cm^2 on permeable support with 0.4 µm Transparent PET Membrane in complete medium, cultured and treated as described above.
Drug transport across Caco-2 monolayers was studied in the Ap–Bl direction, fresh drug and provided to the apical side (donor compartment), and the fresh vehicle was provided to the basolateral side (receiver compartment). For each solution, aliquots of 500 μL were collected immediately after the addition of compounds to the cells (the “time zero”), and after appropriate dilution, an HPLC analysis was performed. At the end of the experiment, after 120 min of incubation, 500 μL of the donor chamber solution was diluted and an HPLC analysis was performed.

COX = details: cited from earlier work
Caco-2 cells [4] = assay: Morphological analysis of the intestinal barrier (ZO-1 immunofluorescence, phalloidin staining); assay type: cell-based, human; details: Caco-2, 6% EtOH 24 h then 1 mM for 72 h
Experimental: Cells were then fixed with 3.7% paraformaldehyde (Sigma, USA) in PBS for 15 min at room temperature and then permeabilized with 0.1% Triton X-100 (Sigma, USA) in PBS for 5 min. After further washes with PBS, phalloidin 1000X (ab176753, Abcam, UK) was diluted to 1X in 1% BSA in PBS, and the cells were incubated for 90 min at room temperature (according to the manufacturer’s instructions). Finally, coverslips were mounted on microscope slides with Vectashield Mounting Medium H2000 with DAPI and cells were observed using a Leica SP5 confocal microscope. For each condition, n = 3, 5 fields/slide were analyzed. A representative picture is shown.
Cells were then treated with 6% EtOH (24 h) and then with 1 mM NSAIDs (72 h). Cells were fixed in 3.7% paraformaldehyde in PBS for 15 min at room temperature, rinsed with PBS, and permeabilized with 0.1% Triton X-100 in PBS for 5 min. After further washes with PBS, cells were incubated for 30 min with BSA 4% in PBS and then incubated overnight at 4 °C with the primary antibody zonulin-1 (ZO-1) (33-910, Thermo Scientific, MA, USA rabbit anti-human, dilution 1:100). […] Finally, coverslips were mounted on microscope slides with Vectashield Mounting Medium with DAPI and cells were observed using a Leica SP5 confocal microscope.

4-HNE = 4-HNE levels by WB, Caco-2; assay type: cell-based, human; details: Caco-2, 6% EtOH 24 h then 1 mM for 72 h
IKBα/4-HNE adducts = assay: Immunoprecipitation for IKBα, IKBα/4-HNE adducts, Caco-2; assay type: cell-based, human; details: Caco-2, EtOH then 1 mM for 72 h
Experimental: The columns were incubated overnight at 4 °C. […] Values were given as RU.

Caco-2 cells [5] = details: effect on EtOH-induced increase; Caco-2, 1 mM for 72 h
Experimental: OxyBlot protein oxidation detection kits (S7150, Millipore Company, Burlington, MA, USA) were used according to the manufacturer’s instructions. Briefly, cells were plated (seeding density 3 × 10^5 cells/cm^2) in a complete medium in a T75 flask and cultured for 20 days post-confluence. After 20 days, cells were exposed for 24 h to EtOH (6%) and for 72 h to NSAIDs (1 mM). OxyBlot assay was then performed as previously reported.

[6] = tested on: Glutathione-S-transferase (GST); details: effect on EtOH-induced decrease; Caco-2, 1 mM for 72 h
IKBα = IKBα protein levels by western blotting, Caco-2; assay type: cell-based, human; details: Caco-2, 6% EtOH 24 h then 1 mM for 72 h
Caco-2 cells [7] = assay: DCFDA cellular ROS assay, Caco-2; assay type: cell-based, human; details: compared to EtOH challenge alone; Caco-2, 1 mM for 72 h
COX-2 = details: human blood, cited from earlier work

Compound	logP ([1]; octanol/ISA water)	IC50 (COX-1; ref 23) [µM]	IC50 (COX-1; ref 24) [µM]	NFkB translocation (NFkB)	Papp at 120 min ([3]; Caco-2, K) [×10⁻⁶ cm/s]	Papp at 120 min ([3]; Caco-2, KLS) [×10⁻⁶ cm/s]	intestinal barrier integrity (ZO-1 and phalloidin staining) (Caco-2 cells [4])	IKBα/4-HNE adduct formation (IKBα/4-HNE adducts)	also measured
CC(C)Cc1ccc(C(C)C(=O)O)cc1 (stereo not drawn) [Ibuprofen]	3.91 ± 0.01	[…]	[…]	–	–	–	–	–	logD ([1]; octanol/ISA water): 0.96; solubility (physchem): 49 µg/mL (≈ 238 µM); TEER (Caco-2 cells [2]): partial but significant protective activity
CCO [EtOH, Ethanol]	–	–	–	–	–	–	–	–	Secreted IL-8 levels (IL-8): 283.9 ± 4.1 pg/mL; Secreted TNF-α levels (TNF-α): 20.9 ± 0.7 pg/mL
C[C@@H](C(=O)O)c1cccc(C(=O)c2ccccc2)c1 [R enantiomer, R-Ketoprofen]	–	–	–	inhibited NFkB translocation to the same extent as KLS	0.579 ± 0.052	1.19 ± 0.044	–	–	potency as a COX inhibitor (COX): several logs less potent than the S enantiomer
C[C@H](C(=O)O)c1cccc(C(=O)c2ccccc2)c1 [S enantiomer, (S)-ketoprofen]	–	–	–	not	0.576 ± 0.031	1.19 ± 0.026	–	–	–
NCCCC[C@H](N)C(=O)O [Lys, L-lysine]	–	–	–	–	–	–	did not show the ability to protect Caco-2 cells	not	4-HNE levels (4-HNE): not; levels of oxidized proteins (OxyBlot) (Caco-2 cells [5]): did not exhibit direct antioxidant effects; GST activity [6]: not observed
CC(C(=O)O)c1cccc(C(=O)c2ccccc2)c1 (stereo not drawn) [Ketoprofen, ketoprofen]	3.05 ± 0.01	0.047	0.11	–	–	–	did not show the ability to protect Caco-2 cells	reduced the formation of the adducts	logD [1]: 0.12; IKBα protein levels (IKBα): counteracted the EtOH-induced IKBα decrease; DCFDA fluorescence intensity (cellular ROS) (Caco-2 cells [7]): more substantial; IC50 (COX-2; ref 23): 2.9 µM; IC50 (COX-2; ref 24): 0.88 µM
